Laboratory results reported in US6608111B1, “Method for treating or preventing prostatic conditions” (Southern Illinois University Office of Research, …, priority 1998, dated 2003).

Assays:
[1] = tested on: female mice; conditions: E2 5 g/animal/day, (±)-Z-BDDA 5, 50, and 500 g/animal/day, versus control group; cited from earlier work
[2] = tested on: dialyzed LDL; assay: Oxidized LDL lag time assay (antioxidant capacity); design: species or system human; conditions: 3 μM Cu2SO4, drugs at 10^−4, 10^−5, 10^−6, and 10^−7 M
Method: Experiments were carried out on dialyzed LDL collected from four fasted persons. The LDL was used within 10 days of dialysis. The oxidizing agent was 3 μM […]; phosphate buffered saline was used to control pH, and all drugs were dissolved in ethanol; final concentrations of each drug in the assays were 10^−4, 10^−5, 10^−6, and 10^−7 M. The combined results are shown in FIG. 6.

[3] = tested on: primary porcine granulosa cells; assay: In situ apoptosis assay in primary porcine granulosa cells; format: cell-based; conditions: for mean apoptosis (% area): 24 hr treatment, 0.1, 1 and 10 μM combined, serum-free MEM, controls 63.4% / 68.4%
Method: Porcine ovaries were obtained from local packing plants and transported to the laboratory on ice-cold Hank's balanced salt solution (HBSS). Each of the follicles was aspirated with an insulin syringe, and the follicular fluid was centrifuged at 3000 rpm and 4° C. for 15 min. The supernatant was poured off and the cells were washed in 5 mls of cold HBSS and centrifuged for another 10 min. The cells were again resuspended in HBSS, and the number of viable cells counted under the microscope using a hematocytometer. Once the number of cells was determined, the cells were centrifuged again for 10 min. and resuspended in the appropriate volume of Eagle's minimum essential media (MEM) containing 10% fetal bovine serum (FBS) and antibiotic/antimycotics. The cells were plated at 250,000 per well in 8 chamber microscope slides (Nunc, Naperville, Ill.) which were pre-treated with poly-L-lysine for 10 min. The slides were incubated at 5% CO2/95% air at 37° C. Approximately 12 hours later, the medium was removed by vacuum and replaced with pre-warmed, serum-free MEM. Cells were then treated for 2-3 hrs with MEM only to wash out any estrogen effects from the serum (Winters et al. (1994) Biol. Reprod. 50 (Suppl. 1):113; Suttner et al. (1998) Biol. Reprod. 59 (Suppl.): (Accepted for publication). Following serum-free MEM treatment, cells were treated for 24 hr with (+) or (−) enantiomers of Z-BDDA or estradiol at 0. 1, 1, and 10 μM, or EtOH vehicle control in serum-free MEM. Cells were subsequently processed using an in situ apoptosis assay kit (Apotag-Plus In Situ Apoptosis Kit-Peroxidase, Edition 1.1., Oncor, Gaithersburg, Md., 1995) to study ovarian apoptosis (Suttner et al., 1998). The slides were washed in two changes of PBS for 5 min each, and then quenched in 2% hydrogen peroxide in methanol for 5 min. at room temperature. After pre-treatment with an equilibration buffer, 13 ul of Terminal deoxynucleotidyl Transferase (TdT) diluted with reaction buffer and distilled water were added, and the slides were incubated for 1 h at 37° C. in a humidified chamber. After this 1 h period, the slides were put in pre-warmed stop wash buffer in the incubator for 30 min to stop the reaction. Next, the slides were washed in three changes of PBS for 5 min. each, and the anti-digoxigenin peroxidase was placed on the slides for 30 min. in a humidified chamber at room temperature. […] The degree of apoptosis for the calorimetric apoptosis assay was quantified microscopically using an image analysis system (Optimas 5.23, Optimas Users Guide, 5th Edition, Redmond, Wash.). Ten measurements (captured images) were taken for each concentration based on a pre-determined grid. […] Percentage area of each color was then quantitated using the image analysis system. […]

[4] = tested on: estrogen receptors ERα and ERβ; conditions: direct receptor binding assays or dose-response profiles of estrogen-responsive reporter genes in cell culture; cited from earlier work

Compound	rate of weight gain [1]	antioxidant activity (shift in lag time of LDL oxidation) [2]	percent apoptosis ([3]; 24 hr treatment at 10 μM) [%]	mean apoptosis (% area) [3] [%]	binding affinity for estrogen receptors [4]
C[C@]12CCC3c4ccc(O)cc4CCC3[C@@H]1CCC2O (single isomer, unassigned; (+)) [estradiol, (+)-17β-estradiol, reference compound]	increased	very little antioxidant activity	23.8	46.5	–
CC[C@H]1c2ccc3cc(O)ccc3c2CC[C@@]1(C)C(=O)O [(+)-Z-BDDA, (+)-Z-bisdehydrodoisynolic acid]	–	significant antioxidant activity	–	61.1	even lower than that of the (−) enantiomer
